In paper PMC6163600, “Antihypertensive Effects of Two Novel Angiotensin I-Converting Enzyme (ACE) Inhibitory Peptides from Gracilariopsis lemaneiformis (Rhodophyta) in Spontaneously Hypertensive Rats (SHRs)” (Marine Drugs, 2018):
Like-named read-outs stand apart in the source and are kept apart here. One block for each molecule: values may come before it. Non-standard residues stand in square brackets, D forms with d. Residues, ends and D or L forms follow the SMILES beside them. No end group written: not given here. Met(O) = CS(=O)CC[C@H](N)C(=O)O

Experiments:
ACE = tested on: ACE; set-up: method as in 6 sources, ref 31 = [31]; doi:10.1007/s00217-017-2886-2; 31. Cao D. Lv X. Xu X. Yu H. Sun X. Xu N. Purification and identification of a novel ACE inhibitory peptide from marine alga Gracilariopsis lemaneiformis protein hydrolysate Eur. Food Res. Technol. 20 ||| ref 32, 33 = [32]; doi:10.1016/j.procbio.2017.08.009; 32. Guo M. Chen X. Wu Y. Zhang L. Huang W. Yuan Y. Fang M. Xie J. Wei D. Angiotensin I-converting enzyme inhibitory peptides from Sipuncula ( Phascolosoma esculenta ): Purification, identification, mo || [33]; doi:10.1080/00021369.1987.10868415; 33. Maruyama S. Mitachi H. Awaya J. Kurono M. Tomizuka N. Suzuki H. Angiotensin I-Converting Enzyme Inhibitory Activity of the C-Terminal Hexapeptide of αs1-Casein Agric. Biol. Chem. Tokyo 1987 51 255 ||| ref 7 = [7]; 7. Fujita H. Yokoyama K. Yoshikawa M. Classification and antihypertensive activity of angiotensin I-converting enzyme inhibitory peptides derived from food proteins J. Food Sci. 2000 65 564 569 ||| ref 43 = [43]; PMID 24866326; doi:10.1021/jf501368a; 43. Duan X. Wu F. Li M. Yang N. Wu C. Jin Y. Yang J. Jin Z. Xu X. Naturally occurring angiotensin I-Converting enzyme inhibitory peptide from a fertilized egg and its inhibitory mechanism J. Agric. Fo ||| ref 44 = [44]; doi:10.1016/j.foodres.2012.11.002; 44. Liu X. Zhang M. Jia A. Zhang Y. Zhu H. Zhang C. Sun Z. Liu C. Purification and characterization of angiotensin I converting enzyme inhibitory peptides from jellyfish Rhopilema esculentum Food Res. ||| ...; details: cited from earlier work; for Inhibition pattern on ACE: peptides isolated from food stuffs, ref 37 (IFL), 38 (AVKVL), 39 (VELWP)
[1] = cited from earlier work
From the text: Antihypertensive activity of peptides were further evaluated using spontaneously hypertensive rats (SHRs). […] Overall, drugs can exert better antihypertensive effects than hydrolysates and antihypertensive peptides derived from foods. […] Both FQIN [M(O)] CILR and TGAPCR decreased the SBP of SHRs. FQIN [M(O)] CILR and TGAPCR reduced the SBP of SHRs by 34 mmHg and 28 mmHg to the maximum extent, re ...

[2] = tested on: spontaneously hypertensive rats (SHRs); test: Antihypertensive effect on SHRs (tail-cuff SBP and DBP); assay type: in vivo, rat; details: positive control, single oral dose 10 mg/kg body weight
Experimental: Spontaneously hypertensive rats (SHRs) (male, 10-week-old, 250–300 g body weight, specific, pathogen-free) were bought from Vital River Laboratory Animal Co., Ltd. (Beijing, China). Animals used in this study were maintained in accordance with the guidelines of the Institutional Research Council’s Guide for the Care and Use of Laboratory Animals. SHRs were housed under 12 h day/night cycle at 22 ± 2 °C and fed with tap water and a standard diet ad libitum. The SHRs were randomly separated into a positive group, control group, and two experiment groups. There were six SHRs in each group. Before the formal start of the test, SHRs had to adapt to measuring the environment in advance. Once the tail systolic blood pressure (SBP) rates were above 180 mmHg, the gavage administration could start.
Normal saline was the solvent to dissolve peptides and control reagent. Captopril (99% purity, Solarbio Technology Co., Ltd., Beijing, China) was the positive group. The same volume of normal saline was the control group. Tail-cuff method was performed for systolic blood pressure (SBP) and diastolic blood pressure (DBP) measurements with a non-invasive CODA device (Kent Scientific Co., Torrington, CT, USA). The blood pressure was measured in 0, 1, 2, 4, 6, 8 h after gavage administration. Measurements were repeated three times at each time point.

ACE (from rabbit lung) [3] = target: T1, ACE (from rabbit lung) (Oryctolagus cuniculus, UniProt P12822); test: ACE inhibition activity assay (HHL substrate, hippuric acid by RP-HPLC); assay type: biochemical; details: 0.1 U/mL ACE, 5 mM HHL, sodium borate buffer pH 8.3 with 0.3 M NaCl, 37 °C, 60 min; seven peptide concentrations; triplicate, mean ± SD
T1 construct: ACE (from rabbit lung); purchased Sigma-Aldrich Co. (St. Louis, MO, USA); host or cells: rabbit lung tissue
T1 sequence (P12822 34-1310): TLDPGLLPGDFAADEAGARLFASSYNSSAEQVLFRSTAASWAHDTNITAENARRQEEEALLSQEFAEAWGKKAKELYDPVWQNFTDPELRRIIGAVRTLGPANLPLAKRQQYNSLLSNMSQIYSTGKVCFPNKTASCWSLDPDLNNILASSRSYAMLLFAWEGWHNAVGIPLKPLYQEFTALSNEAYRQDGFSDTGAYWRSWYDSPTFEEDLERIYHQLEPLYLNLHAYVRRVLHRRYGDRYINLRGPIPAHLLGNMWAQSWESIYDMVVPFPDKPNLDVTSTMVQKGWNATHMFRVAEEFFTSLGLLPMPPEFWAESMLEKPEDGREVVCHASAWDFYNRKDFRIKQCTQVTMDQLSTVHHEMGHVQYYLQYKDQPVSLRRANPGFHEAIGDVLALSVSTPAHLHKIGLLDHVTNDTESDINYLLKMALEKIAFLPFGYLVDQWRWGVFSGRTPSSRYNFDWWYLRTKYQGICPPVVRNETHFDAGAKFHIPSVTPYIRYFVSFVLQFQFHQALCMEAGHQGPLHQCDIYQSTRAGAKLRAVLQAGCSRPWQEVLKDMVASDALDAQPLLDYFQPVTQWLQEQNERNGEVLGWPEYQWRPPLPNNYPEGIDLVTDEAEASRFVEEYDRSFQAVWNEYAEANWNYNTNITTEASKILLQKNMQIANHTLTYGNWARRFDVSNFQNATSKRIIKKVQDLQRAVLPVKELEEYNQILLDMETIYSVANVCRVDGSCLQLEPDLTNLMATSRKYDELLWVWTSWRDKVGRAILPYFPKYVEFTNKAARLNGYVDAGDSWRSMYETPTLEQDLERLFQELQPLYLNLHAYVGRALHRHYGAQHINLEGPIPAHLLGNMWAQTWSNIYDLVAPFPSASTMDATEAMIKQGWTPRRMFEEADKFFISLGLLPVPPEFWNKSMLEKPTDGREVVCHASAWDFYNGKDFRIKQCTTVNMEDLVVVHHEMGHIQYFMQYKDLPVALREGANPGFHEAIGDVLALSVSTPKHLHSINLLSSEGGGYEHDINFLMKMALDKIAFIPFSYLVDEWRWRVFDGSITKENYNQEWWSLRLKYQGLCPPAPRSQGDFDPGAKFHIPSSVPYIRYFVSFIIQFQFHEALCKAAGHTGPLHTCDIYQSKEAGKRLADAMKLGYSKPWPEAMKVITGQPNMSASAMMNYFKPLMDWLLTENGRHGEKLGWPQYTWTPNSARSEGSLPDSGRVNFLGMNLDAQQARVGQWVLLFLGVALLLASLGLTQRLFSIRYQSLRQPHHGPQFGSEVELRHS
Experimental: (§1) ACE (from rabbit lung), hippuryl-histidyl-leucine (HHL), high-performance liquid chromatography (HPLC)-grade acetonitrile (ACN), trifluoroaceticacid (TFA) and porcine pancreatin (8× USP) were purchased from Sigma-Aldrich Co. (St. Louis, MO, USA). Trypsin (EC […], ≥250. N.F.U/mg solid), pepsin (EC 3.4.23.1, ≥250 U/mg solid), and captopril (>99% purity) were obtained from Solarbio (Beijing, China). All other chemical reagents were of analytical grade.
(§2) ACE inhibition activity was assayed according to Cushman and Cheung, with some modification. ACE was dissolved in sodium borate buffer (pH 8.3, containing 0.3 M sodium chloride) to 0.1 U/mL for the assay. Synthetic peptides were dissolved in distilled water to seven concentration levels. Then, 20 μL of a certain concentration of peptide was mixed with 10 μL ACE solution. The mixture was incubated at 37 °C for 5 min, and then 50 μL of 5 mM HHL (sodium borate buffer pH 8.3, containing 0.3 M sodium chloride) was added to the above mixture to start the reaction. […] The absorbance was detected at 228 nm. […] The activity of ACE inhibition was calculated as followed:ACE inhibitory activity (%) = (Acontrol − Ainhibitor)/Acontrol × 100 where Ainhibitor is the relative area of the hippuric acid (HA) peak obtained from the reaction of ACE and HHL with inhibitor. […]

ACE (from rabbit lung) [4] = target: T1, ACE (from rabbit lung); test: Stability of peptides against ACE; assay type: in vitro ADME; details: 0.1 mg/mL peptide with 0.1 U/mL ACE, 37 °C, 24 h; read-out ACE inhibitory activity; mean ± SD, n = 3
From the text: as §1
The stability of peptides against ACE was assayed according to Salampessy. J and Fujita. H [48, 49]. 30 μL of peptides (0.1 mg/mL) reacted with 30 μL 0.1 U/mL ACE solution at 37 °C for 24 h. The ACE was then inactivated through boiling the solution for 10 min. Then, 20 μL of peptides were used to detect ACE inhibitory activity in the above method.

ACE (from rabbit lung) [5] = target: T1, ACE (from rabbit lung); test: Determination of inhibitory pattern (Lineweaver-Burk plots); assay type: biochemical; details: X-axis intercept of the plot of Lineweaver-Burk slopes against peptide concentration
Experimental: as §1, §2

[6] = Observed water solubility of the peptide; assay type: physicochemical; details: when the concentration was lower than 10 mg/mL; solubility gradually decreased above 10 mg/mL
From the text: The properties and stabilities of peptides are prerequisites for the preparation of "functional peptides". According to the information in the Innovagen server, FQIN [M(O)] CILR has poor water solubility. […] The hydrophobicity of FQIN [M(O)] CILR is related to the presence of hydrophobic amino acids, such as Phe, Leu, Ile, and Met. The hydrophobicity of FQIN [M(O)] CILR may facilitate the binding of peptides to the hydrophobic active center of ACE, in turn, produce better inhibitory activity.

[7] = peptides isolated from jellyfish, read-out: IC50 (ACE inhibition)
[8] = reported C-terminal arginine ACE inhibitory peptides, read-out: IC50 (ACE inhibition)
[9] = peptide isolated from dried bonito, before pre-incubation with ACE, read-out: IC50 (ACE inhibition)

Molecule: GDIGY
- IC50 (ACE; [7]): 32.6 µM
- Reduction of SBP [1]: 20.67 mmHg

Molecule: QVEY
- IC50 (ACE; peptide from trypsin hydrolyzate of G. lemaneiformis, read-out: IC50 (ACE inhibition)): 474 µM

Molecule: C[C@H](CS)C(=O)N1CCC[C@H]1C(=O)O [captopril]
- Antihypertensive effect on SHRs (in words) [2]: maximal antihypertensive effect

Molecule: AVKVL
- Inhibition pattern on ACE (ACE): noncompetitive inhibition

Molecule: YASGR
- IC50 (ACE; [8]): 184 µM

Molecule: VELWP
- Inhibition pattern on ACE (ACE): noncompetitive inhibition

- IC50 (ACE (from rabbit lung) [3]): 23.9 ± 0.82 µM
- Ki (ACE (from rabbit lung) [5]): 860 ± 60 µM
Molecule: TGAPCR [TGAPCR]
- Stability against ACE hydrolysis (ACE inhibitory activity after incubation with ACE) (ACE (from rabbit lung) [4]): stable ACE inhibitors but not substrates of ACE

Molecule: YIPIQYVLSR
- IC50 (ACE; [8]): 132 µM

Molecule: GNGSGYVSR
- IC50 (ACE; [8]): 29 µM

Molecule: HLFGPPGKKDPV
- IC50 (ACE; peptide separated from fertilized eggs, read-out: IC50 (ACE inhibition)): 125 µM
- Greatest SBP drop ([1]; oral dose of 10 mg/kg): 30 mmHg

- IC50 (ACE (from rabbit lung) [3]): 9.64 ± 0.36 µM
- water solubility found in the authors' study [6]: good water solubility
- Ki (ACE (from rabbit lung) [5]): 710 ± 40 µM
Molecule: CC[C@H](C)[C@H](NC(=O)[C@H](CS)NC(=O)[C@H](CC[S+](C)[O-])NC(=O)[C@H](CC(N)=O)NC(=O)[C@@H](NC(=O)[C@H](CCC(N)=O)NC(=O)[C@@H](N)Cc1ccccc1)[C@@H](C)CC)C(=O)N[C@@H](CC(C)C)C(=O)N[C@@H](CCCNC(=N)N)C(=O)O (stereo partly drawn) [FQIN [M(O)] CILR] (H-FQIN[Met(O)]CILR-OH)
- Stability against ACE hydrolysis (ACE inhibitory activity after incubation with ACE) (ACE (from rabbit lung) [4]): stable ACE inhibitors but not substrates of ACE

Molecule: FFGRCVSP
- IC50 (ACE; [9]): 0.4 µM
- IC50 (ACE; peptide isolated from dried bonito, hydrolyzed by ACE to fragments, read-out: IC50 after hydrolysis by ACE): 4.6 µM

Molecule: LKPNM
- IC50 after the pre-incubation with ACE, as fraction of the IC50 before (ACE; hydrolyzed into LKP and NM): 1/3
- IC50 (ACE; [9]): 2.4 µM

Molecule: QPGPT
- IC50 (ACE; [7]): 80.7 µM
- Reduction of SBP [1]: 13.75 mmHg
